In brackets after ≈: the same amount, converted by molar mass. Like-named read-outs stand apart in the source and are kept apart here.
How the values were obtained:
Gelatinase B (MMP-9) = biological target: T1, Gelatinase B (MMP-9) (Homo sapiens, UniProt P14780); assay: Catalytic inhibition of gelatinase B (MMP-9) in human serum (serum-based assay); assay type: biochemical
T1 construct: All the MMP-9 present in the samples (proMMP-9; active MMP-9 complexed or not complexed with the respective test substance) was isolated; from tissue; host or cells: freshly isolated human serum
Method: Freshly isolated human serum was shock-frozen in the desired volume in liquid N2 and then stored at −80° C. For the catalytic inhibition of MMP-9 in human serum, the appropriate parts by volume of human serum were thawed at room temperature. 100 parts by volume of undiluted, freshly thawed human serum were mixed with 1 part by volume of test substance, thoroughly mixed and incubated at 37° C. for 1 h. The test substances were dissolved in 100% dimethyl sulfoxide, and a 10 mM stock solution was prepared. For dose-effect plots, the test substances were tested in final concentrations of from […] to 0.001 μM for their catalytic inhibition of MMP-9 in human serum. The final concentration of DMSO in the reaction solution was 1% in each case.
Active MMP-9 from the reaction solutions described above was determined with the aid of a MMP-9 activity assay system (Amersham Pharmacia Biotech Europe GmbH).
After the incubation, one part by volume of the reaction mixture described above was diluted with 20 parts by volume of MMP-9 reaction buffer. The samples diluted in this way were transferred to a 96-well assay plate (Amersham Pharmacia Biotech Europe GmbH, Germany) coated with a specific MMP-9 antibody and incubated at 4° C. overnight. In addition, various concentrations of dissolved, recombinant human pro MMP-9 were likewise transferred onto the 96-well assay plate to construct the standard curve.
100 μl of the respective samples were employed per well. All the MMP-9 present in the samples (proMMP-9; active MMP-9 complexed or not complexed with the respective test substance) was isolated from the sample mixture by the specific MMP-9 antibody and bound to a solid matrix.
The immobilized MMP-9 samples were, after the incubation, washed 4× with 200 μl of washing buffer each time. Subsequently, proMMP-9 present was activated with 50 μl of APMA solution at 37° C. for 1.5 h.
The enzymic activity was measured by adding, after the incubation, 50 μl of detection reagent to each sample and mixing. The absorption of the assay plate charged in this way was measured immediately at 405 nm in an ELISA measuring instrument in order to fix time t=0. The assay plate was then incubated at 37° C. for 2 to 3 h and thereafter the absorption at 405 nm was measured.
Using the standard curve employed, the resulting measurements were converted as follows to the remaining, uninhibited active form of MMP-9 in ng/ml. • X=(Y−b)/m*20 • X=active MMP-9 in [ng/mL] • Y=measured absorption • b=intercept on y axis • m=gradient • 20=dilution factor
The inhibitory effect was calculated as percentage inhibition by the following formula: % inhibition=100−(X2*100/X1) • X1=active MMP-9 in [ng/ml] without test substance • X2=active MMP-9 in [ng/ml] with test substance
The IC50, the concentration of inhibitor which is necessary for 50% inhibition of the enzymic activity, was determined graphically by plotting the percentage inhibitions at various inhibitor concentrations.
The composition of the buffer solutions respectively employed was as follows:
Reaction buffer: • 50 mM Tris-HCl pH 7.6 • 1.5 mM NaCl • 0.5 mM CaCl2 • 1 μM ZnCl2 • 0.01% (v/v) BRIJ 35
Recombinant MMP-9 employed for standard: • 0; 0.5; 1.0; 2.0; 4.0; 8.0; 16.0 ng/ml
Washing buffer: • 0.01 M sodium phosphate buffer pH 7.0 • 0.05% Tween20
APMA solution: • 1 mM p-aminophenyl mercuric acetate • 50 mM Tris-HCl pH 7.6 • 1.5 mM NaCl • 0.5 mM CaCl2 • 1 μM ZnCl2 • 0.01% (v/v) BRIJ 35
Detection reagent: • Modified urokinase • S-2444 peptide substrate • 50 mM Tris-HCl pH 7.6 • 1.5 mM NaCl • 0.5 mM CaCl2 • 1 μM ZnCl2 • 0.01% (v/v) BRIJ 35

[1] = Thermodynamic solubility in PBS buffer pH 7.4, CLND (chemoluminescent nitrogen detector); assay type: physicochemical; conditions: aqueous buffer, thermodynamic from solid, PBS buffer pH 7.4, room temperature
Method: The solution is then centrifuged at 14 000 rpm for 5 minutes. The solution is removed from the pellet and filtered through a syringe filter (0.45 μm pore size). The presence of a pellet is checked in order to ensure that a saturated solution was present. The filtered clear solution is analyzed by HPLC.
The dissolved amount of substance is quantified using a generic chromatographic method:
Either a calibration line derived from DMSO stock solutions (1-500 μM) of the appropriate substance is used to quantify the corresponding signal in the UV (254 nm) chromatogram of the solubility sample, or the quantification is undertaken via the peak area in the CLND trace. In the case of CLND quantification, caffeine is used as standard in a calibrating dilution.
The limit of quantitation is determined together with the calibration series. The limit of quantitation is normally 1-5 μM with UV detection, 5-10 μM with CLND quantification (depending on the number of nitrogen atoms in the molecule or the extinction coefficient of the molecule). If the intensity of the signal from the dissolved molecule is below the limit of quantitation, the result is reported as less than the limit of quantitation.
The clear solution after incubation for 16 hours is always measured as duplicates, once diluted 40-fold and once directly without dilution. The sample for which the signal is in the linear range of the calibration is used to determine the solubility.

Protein binding (human) = assay type: in vitro ADME; conditions: plasma
[2] = carboxylic acid derivatives, read-out: MMP-9 activity
[3] = hydroxamic acid derivatives, read-out: MMP-9*

T1 sequence (P14780 107-707 limits assumed): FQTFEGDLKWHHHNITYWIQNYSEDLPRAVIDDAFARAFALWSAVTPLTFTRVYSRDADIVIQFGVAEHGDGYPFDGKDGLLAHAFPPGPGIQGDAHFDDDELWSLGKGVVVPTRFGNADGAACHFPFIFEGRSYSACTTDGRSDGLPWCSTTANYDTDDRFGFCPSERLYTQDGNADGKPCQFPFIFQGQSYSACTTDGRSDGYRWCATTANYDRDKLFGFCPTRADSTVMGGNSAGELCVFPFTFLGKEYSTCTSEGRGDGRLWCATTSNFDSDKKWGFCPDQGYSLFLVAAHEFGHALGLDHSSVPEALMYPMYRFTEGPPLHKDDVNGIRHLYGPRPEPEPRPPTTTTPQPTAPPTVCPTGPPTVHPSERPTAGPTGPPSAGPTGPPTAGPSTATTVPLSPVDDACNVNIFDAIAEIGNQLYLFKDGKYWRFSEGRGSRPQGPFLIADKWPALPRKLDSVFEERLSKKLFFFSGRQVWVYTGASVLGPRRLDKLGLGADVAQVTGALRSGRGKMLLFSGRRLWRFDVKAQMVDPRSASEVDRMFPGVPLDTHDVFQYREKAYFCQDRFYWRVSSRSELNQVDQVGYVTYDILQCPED

| SMILES | IC50 (Gelatinase B (MMP-9); [2]) | IC50 (Gelatinase B (MMP-9); [3]) | solubility at 16 h [1] | fraction unbound (Protein binding (human)) |
| --- | --- | --- | --- | --- |
| COc1ccc(Oc2ccc(S(=O)(=O)N3CCc4cc(OCCN5CCCCC5)ccc4C3C(=O)O)cc2)cc1 (stereo not shown) [Exemplary compound 14, 2-[4-(4-Methoxyphenoxy)benzenesulfonyl]-6-(2-piperidin-1-ylethoxy)-1,2,3,4-tetrahydroisoquinoline-1-carboxylic acid] | 7500 nM | – | – | – |
| CN1CCN(CCCOc2ccc3c(c2)CCN(S(=O)(=O)c2ccc(Oc4ccc(F)cc4)cc2)C3C(=O)NO)CC1 (stereo not shown) [Exemplary compound 3, 2-[4-(4-Fluorophenoxy)benzenesulfonyl]-6-[3-(4-methylpiperazin-1-yl)propoxy]-1,2,3,4-tetrahydroisoquinoline-1-carboxylic acid hydroxamide] | – | 200 nM | 23 µM (≈ 13.8 µg/mL) | 0.01 |
| COc1ccc(Oc2ccc(S(=O)(=O)N3CCc4cc(OCCN5CCCCC5)ccc4C3C(=O)NO)cc2)cc1 (stereo not shown) [Exemplary compound 13, 2-[4-(4-Methoxyphenoxy)benzenesulfonyl]-6-(2-piperidin-1-ylethoxy)-1,2,3,4-tetrahydroisoquinoline-1-carboxylic acid hydroxyamide] | – | 600 nM | 16 µM (≈ 9.31 µg/mL) | 0.011 |
| O=C(O)C1c2ccc(OCCN3CCCCC3)cc2CCN1S(=O)(=O)c1ccc(Oc2ccc(F)cc2)cc1 (stereo not shown) [Exemplary compound 2, 2-[4-(4-Fluorophenoxy)benzenesulfonyl]-6-(2-piperidin-1-ylethoxy)-1,2,3,4-tetrahydroisoquinoline-1-carboxylic acid] | 8700 nM | – | – | – |
| O=C(O)C1c2ccccc2CCN1S(=O)(=O)c1ccc(Oc2ccc(F)cc2)cc1 (stereo not shown) [Comparative compound] | > 100000 nM | – | – | – |
| CCN(CC)CCOc1ccc2c(c1)CCN(S(=O)(=O)c1ccc(Oc3ccc(OC)cc3)cc1)C2C(=O)NO (stereo not shown) [Exemplary compound 15, 6-(2-Diethylaminoethoxy)-2-[4-(4-methoxyphenoxy)benzenesulfonyl]-1,2,3,4-tetrahydroisoquinoline-1-carboxylic acid hydroxyamide] | – | 200 nM | 107 µM (≈ 61 µg/mL) | 0.012 |
| CCN(CC)CCOc1ccc2c(c1)CCN(S(=O)(=O)c1ccc(Oc3ccc(F)cc3)cc1)C2C(=O)NO (stereo not shown) [Exemplary compound 9, 6-(2-Diethylaminoethoxy)-2-[4-(4-fluorophenoxy)benzenesulfonyl]-1,2,3,4-tetrahydroisoquinoline-1-carboxylic acid hydroxyamide] | – | 20 nM | 153 µM (≈ 85.3 µg/mL) | 0.061 |
| CCN(CC)CCOc1ccc2c(c1)CCN(S(=O)(=O)c1ccc(Oc3ccc(OC)cc3)cc1)C2C(=O)O (stereo not shown) [Exemplary compound 16, 6-(2-Diethylaminoethoxy)-2-[4-(4-methoxyphenoxy)benzenesulfonyl]-1,2,3,4-tetrahydroisoquinoline-1-carboxylic acid] | 6600 nM | – | – | – |
| O=C(NO)C1c2ccccc2CCN1S(=O)(=O)c1ccc(Oc2ccc(F)cc2)cc1 (stereo not shown) [Comparative compound] | – | 2500 nM | < 1 µM | 0.002 |

Reference: patent publication US7858619B2, “Substituted tetrahydroisochinolines as MMP inhibitors, related production method and use as medicine” (sanofi-aventis, priority 2005, dated 2010)
